Results as given in patent US6641840B2, “Sustained release formulations for growth hormone secretagogues” (Pfizer Inc., priority 2000, dated 2003).

Key:
IGF-1 = test: Clinical study in subjects 65-84 years: change from baseline in IGF-1; assay type: in vivo, human
Protocol: This clinical study was performed in male and female subjects between the ages of 65 and 84 years inclusive, and whose baseline IGF-1 levels were <150 ng/ml.
The study was a double blind, parallel group, placebo-controlled study.
(§1) (All dosage forms in this part of the study were immediate release dosage forms.)
In addition, an extension study was conducted to evaluate the relationship between peak GH concentrations or IGF-I versus surrogate responses such as lipid concentrations and body composition. A sustained release (SR) formulation was also evaluated, either alone or combined with an immediate release (IR) formulation (24-30 patients per group). [16 mg (10 SR, 6 IR) h.s. (h.s. means at bedtime); 16 mg (10 SR, 6 IR) h.s. every third day; 16 mg SR h.s.; and placebo.] The formulations are set forth below.
Study active compound was supplied in blisterpaks, with five tablets to be taken at time of each dosing. Subjects were instructed to take the tablets with one glass of water at bedtime.
Return visits were scheduled at 1, 2, and 4 weeks after baseline. […] The baseline and all subsequent follow-up visits were performed at the same time of day (between approximately 8-11 am).
A follow-up evaluation was made at 1, 2, and 4 weeks. Vital signs were obtained and the skin of the face, trunk and upper extremities was inspected.
(§2) The primary efficacy endpoint was the percentage change from baseline in IGF-1. Secondary outcomes included insulin-like growth factor binding protein 3 (IGFBP-3), cholesterol subfractions, and percent changes in total adipose and total lean tissue. Changes in each of the secondary efficacy measures over time were examined systematically either graphically or in tabular form and summarized using appropriate descriptive statistics as is well known in the art.

[1] = tested on: insulin-like growth factor binding protein 3 (IGFBP-3); test: Clinical study: IGFBP-3; assay type: in vivo, human; conditions: first leg, immediate release dosing
Excerpt: as §1, §2

rat pituitary cells = test: Pituitary cell desensitization - intracellular calcium assay; assay type: cell-based
Excerpt: Thus, it appears that sustained release formulations would not provide the desired in vivo response. The experiment was designed so that changes in intracellular calcium concentration could be continuously monitored during successive exposures of the same cells to the indicated test substances.
Rat pituitary cells were isolated as described in Example 3 and plated onto poly-D-lysine-coated glass coverslips, one coverslip per well in 12-well plates, at a density of 3-4×10^5 cells per well. Assays were performed 3-4 days after plating. Cells were loaded with 5 μM fura-2 AM (Molecular Probes, Eugene, Oreg.), a calcium-sensitive fluorescent dye, by incubation for 30 min at room temperature. Fura-2 was dissolved in dimethylsulfoxide at 5 mM, then diluted into KRH buffer (115 mM NaCl, 5.4 mM KCl, 1.8 mM CaCl2, 1 mM MgCl2, 0.96 mM NaH2PO4, 25 mM HEPES, 6 mM glucose and 0.05% bovine serum albumin, adjusted to pH 7.3)
To assay changes in intracellular calcium concentration, a coverslip with attached cells was mounted in a perfusion chamber on the stage of an inverted microscope (Zeiss Axiovert 135 with epifluorescence, Geschaftsbereich Mikroscopie, Oberkochen, Germany) and continuously superfused at room temperature. After superfusion with KRH for 1-2 min, baseline fluorescence was recorded. Each test substance was applied for 2 min, followed by washout with KRH prior to stimulation with the next test substance. Up to 20 individual cells per field were selected for recording and were excited alternately at wavelengths of 380 nm or 340 nm (slit width 15 nm). Fluorescence emission at 510 nm was collected at 5 sec intervals by a low light CCD camera (Hamamatsu Photonics, Hamamatsu City, Japan), and digitized images for the two excitation wavelengths were analyzed using Videoprobe software (ETM Systems, Irvine, Calif.) to determine the 340 nm/380 nm fluorescence ratio for individual cells during each time interval. The 340 nm/380 nm fluorescence ratio is proportional to the concentration of intracellular calcium.

[2] = Solubility and osmotic pressure of the active compound (statement); assay type: physicochemical

CN1N=C2CCN(C(=O)[C@@H](COCc3ccccc3)NC(=O)C(C)(C)N)C[C@@]2(Cc2ccccc2)C1=O.O=C(O)C(O)C(O)C(=O)O [Compound A]
average rise of IGF-I (IGF-1; extension study, 16 mg (10 SR, 6 IR) h.s. every third day): approximately 10% | IGF-I (IGF-1; extension study, each of the 2 groups dosed daily (16 mg (10 SR, 6 IR) h.s.; 16 mg SR h.s.)): increases | increase in IGF-I (IGF-1; first leg, both groups administered 9 mg daily (3 mg tid; 3 mg am and 6 mg pm), immediate release, subjects 65-84 years): approximately 35% | IGFBP3 [1]: increased | calcium flux on re-exposure to Compound A after washout (rat pituitary cells; cells that initially responded to Compound A or GHRP-6): refractory | desensitization between GHRH and Compound A (rat pituitary cells; intracellular calcium, successive exposures): no desensitization | cellular responses (intracellular calcium) on repeated exposure (rat pituitary cells; successive 2 min exposures with washout): homologous desensitization | osmotic pressure [2]: about 4 atmospheres | solubility ([2]; water): > 150 mg/mL
